Measurements from PubChem BioAssay AID276 (DTP/NCI, 2004).
Several values for one entry are separate records, joined by “and”; a condition that tells them apart may be missing. Equal entries are not always repeated. Inconclusive results and toxic doses are left out. How the source made its calls: active means survival T/C of 150% or more; inactive means T/C below 125% in these data.

Test system: B6C3F1 mice, Lewis lung carcinoma iv, survival T/C
Experiment: NCI In Vivo Anticancer Drug Screen. Data for tumor model Lewis Lung Carcinoma (intravenous) in B6C3F1 mice
Conditions: endpoint: median survival time, higher = longer survival
Description: The antitumor activity of compounds was measured in mice bearing transplantable tumors. Survival or tumor size were measured and the results are expressed as the measurement made in the treated group (T) divided by the measurement made in the vehicle treated control group (C). The tumor model used in this assay is Lewis Lung Carcinoma (intravenous) in B6C3F1 mice

[1] = dose: 25.0 mg/kg/injection, schedule: Q01DX009 (ip), vehicle: saline
[2] = dose: 50.0 mg/kg/injection, schedule: Q01DX009 (ip), vehicle: saline
[3] = dose: 25.0 mg/kg/injection, schedule: Q01DX009 (ip), vehicle: saline with Tween-80
[4] = dose: 50.0 mg/kg/injection, schedule: Q01DX009 (ip), vehicle: saline with Tween-80
[5] = dose: 100.0 mg/kg/injection, schedule: Q01DX009 (ip), vehicle: saline with Tween-80
[6] = dose: 200.0 mg/kg/injection, schedule: Q01DX009 (ip), vehicle: saline with Tween-80
[7] = dose: 3.12 mg/kg/injection, schedule: Q01DX009 (ip), vehicle: distilled water + Tween-80
[8] = dose: 12.5 mg/kg/injection, schedule: Q01DX009 (ip), vehicle: distilled water + Tween-80
[9] = dose: 12.5 mg/kg/injection, schedule: Q01DX009 (ip), vehicle: Klucel (hydroxypropylcellulose) (HPC)
[10] = dose: 25.0 mg/kg/injection, schedule: Q01DX009 (ip), vehicle: Klucel (hydroxypropylcellulose) (HPC)
[11] = dose: 50.0 mg/kg/injection, schedule: Q01DX009 (ip), vehicle: Klucel (hydroxypropylcellulose) (HPC)
[12] = dose: 6.25 mg/kg/injection, schedule: Q01DX009 (ip), vehicle: saline

Measured: T/C

COc1nc(C(Cl)(Cl)Cl)c(Cl)c(OC)c1Cl
inactive: dose: 25.0 mg/kg/injection, schedule: Q01DX008 (ip), vehicle: Klucel (hydroxypropylcellulose) (HPC) 120 % of control | dose: 50.0 mg/kg/injection, schedule: Q01DX008 (ip), vehicle: Klucel (hydroxypropylcellulose) (HPC) 113 % of control | dose: 100.0 mg/kg/injection, schedule: Q01DX008 (ip), vehicle: Klucel (hydroxypropylcellulose) (HPC) 113 % of control

CC1(C)OCC2OC=CC(=O)C2O1 (stereo not drawn)
inactive: [1] 98 % of control | [2] 98 % of control | dose: 100.0 mg/kg/injection, schedule: Q01DX009 (ip), vehicle: saline 105 % of control | dose: 200.0 mg/kg/injection, schedule: Q01DX009 (ip), vehicle: saline 102 % of control | dose: 400.0 mg/kg/injection, schedule: Q01DX009 (ip), vehicle: saline 104 % of control

O=C(Nc1cc(Cl)ccc1C(=O)O)c1cccc(C[n+]2ccccc2)c1
inactive: dose: 12.5 mg/kg/injection, schedule: Q01DX009 (ip), vehicle: saline with Tween-80 107 % of control | [3] 102 % of control | [4] 92 % of control | [5] 95 % of control | [6] 100 % of control and 102 % of control

COc1cccc2c1C(=O)c1c(O)c3c(c(O)c1C2=O)C[C@@](O)(C(=O)CO)C[C@@H]3OC1CC(OC(C)=O)C(OC(C)=O)C(C)O1 (stereo partly drawn)
active: dose: 12.0 mg/kg/injection, schedule: Q01DX009 (ip), vehicle: water 266 % of control | [8] 285 % of control
inactive: dose: 0.78 mg/kg/injection, schedule: Q01DX009 (ip), vehicle: water 91 % of control | dose: 1.5 mg/kg/injection, schedule: Q01DX009 (ip), vehicle: water 119 % of control | dose: 1.56 mg/kg/injection, schedule: Q01DX009 (ip), vehicle: distilled water + Tween-80 106 % of control | dose: 1.56 mg/kg/injection, schedule: Q01DX009 (ip), vehicle: water 103 % of control | dose: 3.0 mg/kg/injection, schedule: Q01DX009 (ip), vehicle: water 111 % of control | [7] 113 % of control | dose: 3.12 mg/kg/injection, schedule: Q01DX009 (ip), vehicle: water 111 % of control

COC(=O)C[C@](O)(CCC(C)(C)O)C(=O)O[C@@H]1C(OC)=C[C@]23CCCN2CCc2cc4c(cc2[C@H]13)OCO4
inactive: dose: 0.25 mg/kg/injection, schedule: Q01DX009 (ip), vehicle: saline 98 % of control and 104 % of control | dose: 0.5 mg/kg/injection, schedule: Q01DX009 (ip), vehicle: saline 103 % of control and 106 % of control | dose: 1.0 mg/kg/injection, schedule: Q01DX009 (ip), vehicle: saline 94 % of control and 102 % of control

[Cl][Pt][Cl].[NH-]C(CO)C(=O)O (stereo not drawn)
inactive: dose: 6.25 mg/kg/injection, schedule: Q01DX009 (ip), vehicle: water 101 % of control | dose: 12.5 mg/kg/injection, schedule: Q01DX009 (ip), vehicle: water 111 % of control | dose: 25.0 mg/kg/injection, schedule: Q01DX009 (ip), vehicle: water 105 % of control | dose: 50.0 mg/kg/injection, schedule: Q01DX009 (ip), vehicle: water 110 % of control

CCNC(=O)[B-][N+](C)(C)C
inactive: [9] 98 % of control | [10] 103 % of control | [11] 100 % of control | dose: 100.0 mg/kg/injection, schedule: Q01DX009 (ip), vehicle: Klucel (hydroxypropylcellulose) (HPC) 106 % of control

Nc1nncs1
inactive: dose: 15.19 mg/kg/injection, schedule: Q01DX009 (ip), vehicle: Klucel (hydroxypropylcellulose) (HPC) 106 % of control | dose: 20.25 mg/kg/injection, schedule: Q01DX009 (ip), vehicle: Klucel (hydroxypropylcellulose) (HPC) 100 % of control | dose: 27.0 mg/kg/injection, schedule: Q01DX009 (ip), vehicle: Klucel (hydroxypropylcellulose) (HPC) 113 % of control | dose: 36.0 mg/kg/injection, schedule: Q01DX009 (ip), vehicle: Klucel (hydroxypropylcellulose) (HPC) 103 % of control and 116 % of control | dose: 48.0 mg/kg/injection, schedule: Q01DX009 (ip), vehicle: Klucel (hydroxypropylcellulose) (HPC) 103 % of control

COc1cccc2c1C(=O)c1c(O)c3c(c(O)c1C2=O)C[C@@](O)(/C(C)=N\NC(=O)CO)C[C@@H]3OC1CC(N)C(O)C(C)O1 (stereo partly drawn)
inactive: [12] 87 % of control

O=C1NC(=O)NC(C(=O)O)N1
inactive: dose: 50.0 mg/kg/injection, schedule: Q01DX009 (ip), vehicle: DMSO 101 % of control | dose: 100.0 mg/kg/injection, schedule: Q01DX009 (ip), vehicle: DMSO 105 % of control | dose: 200.0 mg/kg/injection, schedule: Q01DX009 (ip), vehicle: DMSO 98 % of control | dose: 400.0 mg/kg/injection, schedule: Q01DX009 (ip), vehicle: DMSO 110 % of control

CCOC(=O)c1cn(C)c2c1C(O)=C(C(=O)OC)CC(=O)N2
inactive: [3] 97 % of control | [4] 104 % of control | [5] 113 % of control | [6] 99 % of control | dose: 400.0 mg/kg/injection, schedule: Q01DX009 (ip), vehicle: saline with Tween-80 105 % of control

CCc1nc(N)nc(N)c1-c1ccc(Cl)c(N=[N+]=[N-])c1
inactive: [8] 97 % of control | dose: 25.0 mg/kg/injection, schedule: Q01DX009 (ip), vehicle: distilled water + Tween-80 100 % of control | dose: 50.0 mg/kg/injection, schedule: Q01DX009 (ip), vehicle: distilled water + Tween-80 100 % of control | dose: 100.0 mg/kg/injection, schedule: Q01DX009 (ip), vehicle: distilled water + Tween-80 106 % of control and 110 % of control | dose: 200.0 mg/kg/injection, schedule: Q01DX009 (ip), vehicle: distilled water + Tween-80 119 % of control

COc1ccc2c(c1)CCn1c(C)c(COC(=O)NC(C)C)c(COC(=O)NC(C)C)c1-2
inactive: [7] 102 % of control | dose: 6.25 mg/kg/injection, schedule: Q01DX009 (ip), vehicle: distilled water + Tween-80 99 % of control | [8] 87 % of control

O=C1N[C@@H]2C(=C[C@H](O)[C@@H](O)[C@H]2O)c2cc3c(c(O)c21)OCO3
inactive: dose: 0.62 mg/kg/injection, schedule: Q01DX009 (ip), vehicle: saline with Tween-80 93 % of control | dose: 0.63 mg/kg/injection, schedule: Q01DX009 (ip), vehicle: saline with Tween-80 112 % of control | dose: 1.25 mg/kg/injection, schedule: Q01DX009 (ip), vehicle: saline with Tween-80 107 % of control and 109 % of control | dose: 2.5 mg/kg/injection, schedule: Q01DX009 (ip), vehicle: saline with Tween-80 107 % of control and 117 % of control

CC(=O)N(C)C
inactive: dose: 122.5 mg/kg/injection, schedule: Q01DX009 (ip), vehicle: saline 88 % of control | dose: 225.0 mg/kg/injection, schedule: Q01DX009 (ip), vehicle: saline 95 % of control | dose: 450.0 mg/kg/injection, schedule: Q01DX009 (ip), vehicle: saline 110 % of control | dose: 900.0 mg/kg/injection, schedule: Q01DX009 (ip), vehicle: saline 100 % of control | dose: 1800.0 mg/kg/injection, schedule: Q01DX009 (ip), vehicle: saline 93 % of control | dose: 3600.0 mg/kg/injection, schedule: Q01DX009 (ip), vehicle: saline 104 % of control

O=N[O-].O=N[O-].O=N[O-].[Co+3].[NH-]CC[N-]CC[NH-]
inactive: [12] 98 % of control | dose: 12.5 mg/kg/injection, schedule: Q01DX009 (ip), vehicle: saline 115 % of control | [1] 117 % of control | [2] 90 % of control

COc1ccc(Cl)[n+]([O-])n1
inactive: dose: 0.39 mg/kg/injection, schedule: Q01DX009 (ip), vehicle: Klucel (hydroxypropylcellulose) (HPC) 98 % of control | dose: 0.78 mg/kg/injection, schedule: Q01DX009 (ip), vehicle: Klucel (hydroxypropylcellulose) (HPC) 91 % of control | dose: 1.56 mg/kg/injection, schedule: Q01DX009 (ip), vehicle: Klucel (hydroxypropylcellulose) (HPC) 103 % of control | dose: 3.12 mg/kg/injection, schedule: Q01DX009 (ip), vehicle: Klucel (hydroxypropylcellulose) (HPC) 96 % of control | dose: 6.25 mg/kg/injection, schedule: Q01DX009 (ip), vehicle: Klucel (hydroxypropylcellulose) (HPC) 100 % of control and 88 % of control | [9] 99 % of control and 105 % of control | [10] 107 % of control | [11] 112 % of control
